Laboratory results taken from US20090082304A1, “Methods of Treating Hematological Malignancies with Nucleoside Analog Drugs” (NORTHWESTERN UNIVERSITY, priority 2004, published 2009).

Legend:
Type in all cases: cell-based
[1] = tested on: poly (ADP-ribose) polymerase; test: PARP cleavage immunoblot in MM.1 S cells; conditions: 10 μM
Method: 5×10^6 were cells treated with 10 μM 8-NH2-Ado for the indicated times and harvested. Cell pellets were washed with cold phosphate-buffered saline (PBS; 8.1 g NaCl, 1.14 g Na2HPO4, 0.22 g KCl, and 0.25 g/L KH2PO4) and incubated with lysis buffer (50 mM HEPES, 150 mM NaCl, 1.5 mM MgCl2, 1 mM EDTA pH 8.0, 100 mM NaFI, 10 mM Na Pyrophosphate, 500 μM PMSF, 0.5% Triton X-100, 10% glycerol) at 4° C. for one hour. Lysates were centrifuged at 4° C. for 1 minute at 9000×g, and the supernatants were collected and stored at −20° C. Protein concentration was determined by Bio-Rad protein assay (BioRad Laboratories, Hercules, Calif.). Protein, at a concentration of 30 μg, was mixed with sample buffer (125 mM Tris, pH 6.8, 4% SDS, 20% glycerol, 100 mM Dithiothreitol (DTT), and 0.05% bromophenol blue), and fractionated on a pre-cast 8-16% Tris-Glycine gel (Invitrogen/Novex, Carlsbad, Calif.). […]
MM.1 S cells were exposed to 10 μM 8-NH2-Ado for 0, 0.5, 1, 2, 4 or 6 hours, after which cells were lysed as previously described. […] Total protein levels were also assessed to ensure equal loading and transfer (data not shown). […]

p38 MAPK = test: Immunoblot of phospho-p38 MAPK in MM.1 S cells; conditions: 10 μM
Method: (§1) 5×10^6 were cells treated with 10 μM 8-NH2-Ado for the indicated times and harvested. Cell pellets were washed with cold phosphate-buffered saline (PBS; 8.1 g NaCl, 1.14 g Na2HPO4, 0.22 g KCl, and 0.25 g/L KH2PO4) and incubated with lysis buffer (50 mM HEPES, 150 mM NaCl, 1.5 mM MgCl2, 1 mM EDTA pH 8.0, 100 mM NaFI, 10 mM Na Pyrophosphate, 500 μM PMSF, 0.5% Triton X-100, 10% glycerol) at 4° C. for one hour. Lysates were centrifuged at 4° C. for 1 minute at 9000×g, and the supernatants were collected and stored at −20° C. Protein concentration was determined by Bio-Rad protein assay (BioRad Laboratories, Hercules, Calif.). Protein, at a concentration of 30 μg, was mixed with sample buffer (125 mM Tris, pH 6.8, 4% SDS, 20% glycerol, 100 mM Dithiothreitol (DTT), and 0.05% bromophenol blue), and fractionated on a pre-cast 8-16% Tris-Glycine gel (Invitrogen/Novex, Carlsbad, Calif.). Proteins were then transferred to a Polyvinylidene Fluoride (PVDF) membrane (Immobilon-P, Millipore, Bedford, Mass.): Following protein transfer, membranes were blocked with 5% non-fat milk in PBS-T (PBS with 0.1% Tween), incubated with the primary antibody overnight at 4° C. and subsequently with horseradish peroxidase linked secondary antibody (Amersham, Arlington Heights, Ill.). Blots were developed using ECL Plus Chemiluminescent Western Blotting Detection reagent (Amersham, Arlington Heights, Ill.) and the signal was visualized with X-ray film (Hyperfilm, Amersham, Arlington Heights, Ill.). For reprobing purposes, blots were stripped using Restore Western Blot Stripping Buffer from Pierce Biotechnology (Rockford, Ill.). Phospho-MKK3/6 (Ser189/207), phospho-p38 (Thr180/Tyr182), phospho-ATF-2 (Thr69/71), phospho-c-Raf (Ser259), phospho-MEK1/2 (Ser217/221), total MEK1/2, phospho-ERK1/2 (Thr202/Tyr204), total ERK1/2, phospho-p90RSK (Ser380), total RSK, phospho-PDK1 (Ser241), total PDKI, phospho-PTEN (Ser380), total PTEN, phospho-Akt (Ser473), total Akt, phospho-GSK-3β (Ser9), total GSK-3β, phospho-FKHRLI (Thr32)/-FKHR (Thr24), phospho-FKHR (Ser256) primary antibodies were obtained from Cell Signaling Technology (Beverly, Mass.). Total MKK3, total MKK6, total p38, total ATF-2, total c-Raf, total FKHR, total FKHRLI, phospho-JNK and total JNK were purchased from Santa Cruz Biotechnology (Santa Cruz, Calif.). Caspase 3, caspase 9, and PARP antibodies were obtained from Pharmingen (San Diego, Calif.) and anti-MKP1 from Upstate (Lake Placid, N.Y.). Anti-caspase 8 mouse serum was a generous gift of Dr. Marcus Peter (University of Chicago).
(§2) MM.1 S cells were exposed to 10 μM 8-NH2-Ado for 0, 0.5, 1, 2, 4 and 6 hours, after which cells were lysed as previously (Example 2). 30 μg of protein was separated by gel electrophoresis, transferred to PVDF membrane, and probed with phosphorylation-specific antibodies to MKK3/6, p38 MAPK, ATF-2, MEK1/2, ERK1/2, p90RSK, JNK1, PDK1, Akt, FKHRL1 and GSK-3β. […] FIGS. 1A, 1B, 1C and 1D provide the results of the blots.
MM. I S cells were treated with 10 μM 8-chloro-adenosine for 0, 0.5, 1, 2, 4 or 6 hours or 10 μM of cytarabine, fludarabine, gemcitabine or 8-amino-adenosine for 4 hours. Cells were lysed as previously described and 30 μg of protein was separated by gel electrophoresis, transferred to PVDF membrane, and probed with phospho-p38 MAPK (Thr180/Tyr182) antibody.
In a parallel approach to test the involvement of cellular phosphatases, we treated MM.1 S cells with varying concentrations of the phosphatase inhibitor okadaic acid in combination with 8-NH2-Ado for 4 hours to assess whether the serine/threonine phosphatases PP2A and PPI are involved.

MKK3/6 = test: Immunoblot of phospho-MKK3/6 in MM.1 S cells; conditions: 10 μM
Method: (§3) 5×10^6 were cells treated with 10 μM 8-NH2-Ado for the indicated times and harvested. Cell pellets were washed with cold phosphate-buffered saline (PBS; 8.1 g NaCl, 1.14 g Na2HPO4, 0.22 g KCl, and 0.25 g/L KH2PO4) and incubated with lysis buffer (50 mM HEPES, 150 mM NaCl, 1.5 mM MgCl2, 1 mM EDTA pH 8.0, 100 mM NaFI, 10 mM Na Pyrophosphate, 500 μM PMSF, 0.5% Triton X-100, 10% glycerol) at 4° C. for one hour. Lysates were centrifuged at 4° C. for 1 minute at 9000×g, and the supernatants were collected and stored at −20° C. Protein concentration was determined by Bio-Rad protein assay (BioRad Laboratories, Hercules, Calif.). Protein, at a concentration of 30 μg, was mixed with sample buffer (125 mM Tris, pH 6.8, 4% SDS, 20% glycerol, 100 mM Dithiothreitol (DTT), and 0.05% bromophenol blue), and fractionated on a pre-cast 8-16% Tris-Glycine gel (Invitrogen/Novex, Carlsbad, Calif.). Proteins were then transferred to a Polyvinylidene Fluoride (PVDF) membrane (Immobilon-P, Millipore, Bedford, Mass.): Following protein transfer, membranes were blocked with 5% non-fat milk in PBS-T (PBS with 0.1% Tween), incubated with the primary antibody overnight at 4° C. and subsequently with horseradish peroxidase linked secondary antibody (Amersham, Arlington Heights, Ill.). […]

FKHRL1 = test: Immunoblot of phospho-FKHRL1 in MM.1 S cells; conditions: 10 μM
Method: as §3

MM.1 S cells = test: Cell cycle analysis by flow cytometry (subG1 fraction); conditions: 10 μM, up to 4 hours
Method: MM1 S cells were incubated with 10 μM 8-NH2-adenosine 0.5, 1, 2, 4 or 24 hours. To determine the distribution of cells within the cell cycle, I×10^6 MM. I S cells were pelleted (500×g for 5 minutes at 4° C.), and washed twice in ice-cold PBS, fixed in ice-cold 70% ethanol, and stored at 4° C. until analyzed. Before analysis by flow cytometry, the fixed cells were pelleted, washed in PBS, and resuspended in ice-cold flow buffer (PBS containing 0.5% Tween 20, 15 μg/mL propidium iodide, and 5 μg/mL DNase-free RNase). The stained cells were analyzed using an Epics Profile II flow cytometer (Coulter Electronics, Inc., Hialeah, Fla.). FIG. 2 provides the results of this experiment. To ascertain whether the changes in phosphorylation levels of these key signaling molecules is a direct result of cell death, parallel cultures were assessed for cellular viability by cell cycle analysis. Cells undergoing apoptosis have a reduced DNA content caused by cleavage and loss of small DNA fragments. Therefore, apoptotic cells are identified as those cells in the subG1 fraction of the cell cycle.

[2] = tested on: total protein levels of the signaling proteins in myeloma cells; test: Immunoblot reprobe with total protein antibodies
Method: as §1, §2

JNK = test: Immunoblot of phospho-JNK in MM.1 S cells; conditions: 10 μM, 0-6 hours
Method: as §3

Structure (SMILES): Nc1ncnc2c1nc(N)n2[C@@H]1O[C@H](CO)[C@@H](O)[C@H]1O [8-NH2-Ado, 8-amino-adenosine]
- start of cleavage of poly (ADP-ribose) polymerase [1]: ≥ 2 h
- phosphorylation of p38 (p38 MAPK; 4 hours): dramatic loss of phosphorylation
- p38 phosphorylation levels (p38 MAPK; after 2 hours): no appreciable phosphorylation
- p38 phosphorylation levels (p38 MAPK; by 1 hour): dramatically reduced
- Phosphorylated MKK3/6 protein levels (MKK3/6; by 2 hours): decrease significantly
- Phosphorylated MKK3/6 protein levels (MKK3/6; by 6 hours): negligible
- FKHRLI phosphorylation (FKHRL1; at 4 and 6 hours): no appreciable phosphorylation
- FKHRLI phosphorylation (FKHRL1; by 2 hours): decreases dramatically
- subG1 fraction versus untreated cells (MM.1 S cells): no differences
- Total protein levels of the p38 MAPK module (MKK3/6, p38, ATF-2) ([2]; MM.1 S cells, 10 μM, 0-6 hours): remain unchanged
- total ERK1/2 levels ([2]; MM.1 S cells, 10 μM, 0-6 hours): remain unchanged
- total MEK1/2 protein levels ([2]; MM.1 S cells, 10 μM, 0-6 hours): do not change
- total p90RSK protein levels ([2]; MM.1 S cells, 10 μM, 0-6 hours): unaffected
- total protein levels of Forkhead family members ([2]; MM.1 S cells, 10 μM, 0-6 hours): do not change
- total p38 levels ([2]; RPMI-8226, MDR10V and MM.1 R cells): remain unchanged
- JNK phosphorylation (JNK): unaffected
